Test results from US20230285292A1, “COMPOSITIONS AND METHODS OF USING A PLA2-RESPONSIVE DRUG DELIVERY SYSTEM” (THE TRUSTEES OF THE UNIVERSITY OF PENNSYLVANIA, priority 2020, published 2023).

How the values were obtained:
[1] = tested on: DMM-induced OA knee joints; assay: DMM surgery-induced OA model, histology and microCT; type: in vivo, mouse; settings: for morphology and structure of articular cartilage / cartilage degeneration: intra-articular injection once every two weeks starting immediately after DMM, 2 and 4 months
Text: To induce mouse OA that mimics chronic OA in human patients, male mice at 3 months of age were subjected to DMM surgery at right knees and sham surgery at left knees. Briefly, in DMM surgery, the joint capsule was opened immediately after anesthesia and the medial meniscotibial ligament was cut to destabilize the meniscus without damaging other tissues. In Sham surgery, the joint capsule was opened in the same fashion but without any further damage. […] For DMM surgical OA model, the first injection was performed immediately after surgery. Injections were then repeated every 2 weeks for 2 or 4 months. In total, there are 4 injections for the 2 months group and 8 injections for 4 months group. For load-induced OA model, injections (i.a.) were performed immediately and at 48 hours after loading. There are 2 injections in total for each mouse in this model. After euthanasia, mouse knee joints were harvested and fixed in 4% paraformaldehyde overnight followed by decalcification in 0.5 M EDTA (pH 7.4) for 4 weeks prior to paraffin embedding. A serial of 6 μm-thick sagittal sections (about 100) were cut across the entire medial compartment of the joint until ACL junction. […] The final measurement is an average of these three sections. We defined uncalcified cartilage as the area from articular surface to the tide mark and calcified cartilage as the area from tide mark to cement line. The method to measure Mankin Score was described previously(37). Briefly, two sections within every consecutive six sections in the entire section set for each knee were stained with Safranin 0/Fast green and scored by two blinded observers. Each knee received a single score representing the maximal score of its sections. Synovitis score grading was carried out in 6-μm paraffin sections of sagittal mouse knee sections stained with H&E. The following basic morphological parameters of synovitis were included: (i) hyperplasia/enlargement of synovial lining layer, (ii) degree of inflammatory infiltration and (iii) activation of resident cells/synovial stroma, including fibroblasts, endothelial cells, histiocytes, macrophages, and multinucleated giant cells. All parameters are graded from 0 (absent), 1 (slight), 2 (moderate) to 3 (strong positive). The distal femur of mouse knee joints was scanned at a 6-μm isotropic voxel size with a microCT 35 scanner (Scanco Medical AG, Brüttisellen, Switzerland). All images were smoothened by a Gaussian filter (sigma=1.2, support=2.0). Measurement of SBP thickness was described previously(39). […] The region of interest (ROI) was circled and the average SBP thickness within ROI is calculated by average grey value/255*max scale bar value. […]

[2] = Toxicity in mice after 2-month serial intra-articular injections; type: in vivo, mouse
Text: After 2 months treatment for DMM mice, some major organs (kidney, liver, lung, heart, and spleen) and blood were collected. Tissue sections were stained with hematoxylin and eosin (H&E) to assess the effects of different treatment on mouse organ morphology.

[3] = tested on: DMM-induced OA knee joints; assay: DMM surgery-induced OA model, von Frey pain analysis; type: in vivo, mouse; settings: DMM knees; from 2 weeks post-surgery throughout experimental period
Text: To induce mouse OA that mimics chronic OA in human patients, male mice at 3 months of age were subjected to DMM surgery at right knees and sham surgery at left knees. Briefly, in DMM surgery, the joint capsule was opened immediately after anesthesia and the medial meniscotibial ligament was cut to destabilize the meniscus without damaging other tissues. In Sham surgery, the joint capsule was opened in the same fashion but without any further damage. […] For DMM surgical OA model, the first injection was performed immediately after surgery. Injections were then repeated every 2 weeks for 2 or 4 months. In total, there are 4 injections for the 2 months group and 8 injections for 4 months group. For load-induced OA model, injections (i.a.) were performed immediately and at 48 hours after loading. There are 2 injections in total for each mouse in this model. The knee joint pain after DMM surgery or loading injury was evaluated in mice weekly before and after surgery using von Frey filaments as described previously(38). An individual mouse was placed on a wire-mesh platform (Excellent Technology Co.) under a 4×3×7 cm cage to restrict their move. […] The threshold force required to elicit withdrawal of the paw (median 50% withdrawal) was determined five times on each hind paw with sequential measurements separated by at least 5 minutes.

[4] = tested on: load-induced OA knee joints; assay: Single load-induced PTOA model, von Frey pain analysis; type: in vivo, mouse; settings: 6 N or 9 N loading
Text: To induce mouse OA that is noninvasive and mimics post-traumatic OA in human patients, male mice (2 months old) were subjected mechanic loading at the right knees and sham loading at left knees. Briefly, under anesthesia, the right tibiae were positioned with the knee downward in deep flexion between custom-made cups and subjected to axial compressive loads with a peak force of 6 or 9 Newtons (N) with a 0.5 N preload force to maintain the limb in position between loading cycles. Cyclic loads were applied for 0.34 s with a rise and fall time each of 0.17 s and a baseline hold time of 10 s between cycles for 60 cycles. The uninjured left knees were used as controls. […] For DMM surgical OA model, the first injection was performed immediately after surgery. Injections were then repeated every 2 weeks for 2 or 4 months. In total, there are 4 injections for the 2 months group and 8 injections for 4 months group. For load-induced OA model, injections (i.a.) were performed immediately and at 48 hours after loading. […] The knee joint pain after DMM surgery or loading injury was evaluated in mice weekly before and after surgery using von Frey filaments as described previously(38). […] The threshold force required to elicit withdrawal of the paw (median 50% withdrawal) was determined five times on each hind paw with sequential measurements separated by at least 5 minutes.

[5] = tested on: load-induced OA knee joints; assay: Single load-induced PTOA model, histology and TUNEL; type: in vivo, mouse; settings: 6 N or 9 N loading, two weeks
Text: To induce mouse OA that is noninvasive and mimics post-traumatic OA in human patients, male mice (2 months old) were subjected mechanic loading at the right knees and sham loading at left knees. Briefly, under anesthesia, the right tibiae were positioned with the knee downward in deep flexion between custom-made cups and subjected to axial compressive loads with a peak force of 6 or 9 Newtons (N) with a 0.5 N preload force to maintain the limb in position between loading cycles. Cyclic loads were applied for 0.34 s with a rise and fall time each of 0.17 s and a baseline hold time of 10 s between cycles for 60 cycles. The uninjured left knees were used as controls. […] For DMM surgical OA model, the first injection was performed immediately after surgery. Injections were then repeated every 2 weeks for 2 or 4 months. In total, there are 4 injections for the 2 months group and 8 injections for 4 months group. For load-induced OA model, injections (i.a.) were performed immediately and at 48 hours after loading. There are 2 injections in total for each mouse in this model. […] Cartilage injury length was measured in Safranin 0/Fast green stained paraffin sections. […] According to these histological changes, it is possible to identify the demarcation between the normal and injured cartilage tissue, and the length of the cartilage lesion range was measured. […]

[6] = tested on: chronic constriction of the sciatic nerve; settings: intrathecal, given 1 day after chronic constriction of the sciatic nerve, only under daily repeated dosing; cited from earlier work

Structure (SMILES)	increase of SBP thickness at femoral medial site compared to sham joints ([1]; 4 months after DMM surgery) [fold]	increase in synovitis score compared with sham knees ([1]; DMM knees, 2-month treatment)	morphology and structure of articular cartilage / cartilage degeneration [1]	morphology and structure of articular cartilage / cartilage degeneration ([1]; listed as free sPLA2i)	blood parameters (hematology, renal and liver function, serum electrolytes) ([2]; 2-month serial injections)	histopathology of liver, spleen, kidney, lung, heart and knee joint ([2]; two months after serial intra-articular injections)	mechanical threshold / OA pain (von Frey) [3]	pain threshold / OA pain (von Frey) [4]	length of cartilage injury [5]	synovitis scores [5]	behavioral sensitivity [6]
CCCCCCCCCCCCCCCCSCC(COP(=O)([O-])OCC[N+](C)(C)C)NC(=O)CCCCCCCCCCCCCCC (centres unmarked) [sPLA2i, 1-Palmitylthio-2-palmitoylamido-1,2-dideoxy-sn-glycero-3-phosphorylcholine]	1.31	more than 10 fold	did not have a protective effect	not observed	no significant difference	did not observe any histopathological abnormalities	did not alter the OA pain	experienced OA pain	significant damage areas	significant synovitis	–
CCCCC/C=C\C/C=C\C/C=C\C/C=C\CCCC(=O)C(F)(F)F [AACOCF3]	–	–	–	–	–	–	–	–	–	–	reduces behavioral sensitivity
